This is an account of results in patent US4358458A, “Tertiary imidazolyl alcohols and method for the treatment of generalized and local infections caused by fungi and yeasts” (Nordmark-Werke GmbH, priority 1976, dated 1982).

Structures are written as SMILES.

One series in a line: LD50 (mice). To be noted: mouse, in vivo.
Series [1] concerns Candida albicans. The experiment in a line: oral activity in Candida-infected mice (survival). The series is classed as in vivo. To be noted: 100 mg/kg orally twice a day for 7 days; for Number of Animals surviving on day 1 after infection / Number of Animals surviving on day 2 after infection / Number of Animals surviving on day 3 after infection / Number of Animals surviving on day 4 after infection / Number of Animals surviving on day 5 after infection / Number of Animals surviving on day 6 after infection / Number of Animals surviving on day 7 after infection: groups of 10 mice. Here is the method: In order to determine oral activity, groups of 10 mice weighing approximately 20 g were pretreated for 2 days with intramuscular doses of 50 mg/kg of hydrocortisone in order to obtain firm rooting of the infection. The mice were then each infected intravenously with 500,000 Candida albicans germs and subsequently treated orally twice a day for 7 days with 100 mg/kg of the substance to be tested. In addition to an infected, but untreated control group, another group was treated for comparison with the comparison substance MICONAZOL.

The subject of series [2] is Candida albicans. The series is described as follows: series dilution test in vitro, Candida albicans. The series is classed as cell-based. To be noted: dilution b=1:100,000. Here is the method:
The antimicrobial activity of the compounds corresponding to general formula (I) in vitro was tested in a series dilution test with dilution ratios of from 1:10,000 to 1:200,000 against the germs Staphylococcus aureus, Trichophyton mentagrophytes and Candida albicans.
The results were evaluated by the following graduations of the growth inhibition level:
.phi.=complete inhibition
The following dilution ratios were selected as the dilution ratio V: […]

Broadly, the LD50 is the dose expected to kill half of the subjects tested. Low readings indicate a more toxic substance, high ones a less toxic substance. Consider `OC(Cc1ccc(Cl)cc1Cl)(Cn1ccnc1)c1ccc(Cl)cc1Cl` (stereo not drawn) [Example 9, 1,2-bis-(2,4-dichlorophenyl)-3-(imidazol-1-yl)-propan-2-ol-nitrate], for which the LD50 in the series “LD50 (mice)” was 1000 mg/kg. For the same compound, in the series on Candida albicans [1], the “Number of Animals surviving on day 1 after infection” value (shortened to “Number … on day 1 after infection”) is 10, the “Number of Animals surviving on day 2 after infection” value (“Number … on day 2 after infection” for short) was 10, the “Number of Animals surviving on day 3 after infection” value (“Number … on day 3 after infection” below) is 10 and the “Number of Animals surviving on day 4 after infection” value (shortened to “Number … on day 4 after infection”) is recorded as 10. Also, in the series on Candida albicans [1], the “Number of Animals surviving on day 5 after infection” value (“Number … on day 5 after infection” for short) is recorded as 10, the “Number of Animals surviving on day 6 after infection” value (“Number … on day 6 after infection” below) is given as 10 and the “Number of Animals surviving on day 7 after infection” value (shortened to “Number … on day 7 after infection”) came to 9.
Take `Clc1ccc(COC(Cn2ccnc2)c2ccc(Cl)cc2Cl)c(Cl)c1.O=[N+]([O-])O` (stereo not drawn) [MICONAZOL, 1-[2,4-dichloro-β-(2,4-dichlorobenzyloxy)-phenethyl]imidazole nitrate, reference compound]: the “animals still alive on the last day of the treatment” value with Candida albicans [1] (last day of treatment) amounted to 20%. For the same compound, in the series on Candida albicans [1], the “Number … on day 1 after infection” value is listed as 10, the “Number … on day 2 after infection” value amounted to 10, the “Number … on day 3 after infection” value was determined as 8 and the “Number … on day 4 after infection” value was found to be 8. Moreover, in the series on Candida albicans [1], the “Number … on day 5 after infection” value was found to be 6, the “Number … on day 6 after infection” value is 4 and the “Number … on day 7 after infection” value was 2.
With `OC(Cc1ccc(Cl)cc1)(Cn1ccnc1)c1ccc(Cl)cc1` (stereo not drawn) [Example 8, 1,2-bis-(4-chlorophenyl)-3-(imidazol-1-yl)-propan-2-ol nitrate], the LD50 in “LD50 (mice)” came to 1000 mg/kg. For the same compound, in the series on Candida albicans [1], the “Number … on day 1 after infection” value turned out to be 10, the “Number … on day 2 after infection” value was determined as 10, the “Number … on day 3 after infection” value is recorded as 10 and the “Number … on day 4 after infection” value was 10. Moreover, in the series on Candida albicans [1], the “Number … on day 5 after infection” value amounted to 10, the “Number … on day 6 after infection” value came to 10 and the “Number … on day 7 after infection” value turned out to be 10.
With `OC(Cc1ccc(Cl)cc1)(Cn1ccnc1)c1ccccc1` (stereo not drawn) [Example 28, 1-(4-chlorophenyl)-2-phenyl-3-(imidazol-1-yl)-propan-2-ol nitrate], the “growth inhibition level, Candida albicans” value in the series with Candida albicans [2] was “+ ++”. In the series with Candida albicans [1], the “Number … on day 1 after infection” value was found to be 10, the “Number … on day 2 after infection” value worked out at 10, the “Number … on day 3 after infection” value amounted to 10 and the “Number … on day 4 after infection” value is recorded as 10. Besides, in the series with Candida albicans [1], the “Number … on day 5 after infection” value came to 10, the “Number … on day 6 after infection” value was found to be 10 and the “Number … on day 7 after infection” value was 10.
Regarding `OC(Cc1ccccc1)(Cn1ccnc1)c1ccc(Cl)cc1` (stereo not drawn) [Example 15, 1-phenyl-2-(4-chlorophenyl)-3-(imidazol-1-yl)-propan-2-ol nitrate], in the series on Candida albicans [1], the “Number … on day 1 after infection” value was determined as 10, the “Number … on day 2 after infection” value worked out at 10, the “Number … on day 3 after infection” value worked out at 10 and the “Number … on day 4 after infection” value was 10. Moreover, in the series with Candida albicans [1], the “Number … on day 5 after infection” value is listed as 10, the “Number … on day 6 after infection” value is recorded as 10 and the “Number … on day 7 after infection” value is 9.
In the case of `OC(Cc1ccc(Cl)cc1Cl)(Cn1ccnc1)c1ccccc1` (stereo not drawn) [Example 34, 1-(2,4-dichlorophenyl)-2-phenyl-3-(imidazol-1-yl)-propan-2-ol nitrate], in the series on Candida albicans [1], the “Number … on day 1 after infection” value worked out at 10, the “Number … on day 2 after infection” value was determined as 10, the “Number … on day 3 after infection” value worked out at 10 and the “Number … on day 4 after infection” value came out at 10. In the series on Candida albicans [1], the “Number … on day 5 after infection” value worked out at 10, the “Number … on day 6 after infection” value is on record as 10 and the “Number … on day 7 after infection” value is reported as 9.
For `Cl.OC(Cc1ccc(Cl)cc1)(Cn1ccnc1)c1ccc(Cl)cc1Cl` (stereo not drawn) [Example 30, 1-(4-chlorophenyl)-2-(2,4-dichlorophenyl)-3-(imidazol-1-yl)-propan-2-ol hy drochloride], the LD50 in “LD50 (mice)” is 1000 mg/kg. Also, in the series on Candida albicans [1], the “Number … on day 1 after infection” value is reported as 10, the “Number … on day 2 after infection” value is reported as 10, the “Number … on day 3 after infection” value stood at 10 and the “Number … on day 4 after infection” value worked out at 10. Further, in the series with Candida albicans [1], the “Number … on day 5 after infection” value turned out to be 10, the “Number … on day 6 after infection” value worked out at 10 and the “Number … on day 7 after infection” value was 10.
